Patent US20120220581A1, “IMIDAZO[1,2-b]PYRIDAZINE DERIVATIVES AND THEIR USE AS PDE10 INHIBITORS” (Janssen-Cilag, S.A., priority 2009, published 2012)
Like-named read-outs stand apart in the source and are kept apart here.

Columns and labels:
[1] = tested on: female hooded-Lister rats; assay: Object recognition test (NOR) after sub-chronic PCP; type: in vivo, rat
Procedure: 60 female hooded-Lister rats (Charles River, UK) were used as subjects for these studies and weighed 248 g±20 g. Rats were allowed at least a 7-day acclimatization period to the animal unit prior to commencement of experimentation. Rats were housed in groups of 5 under standard laboratory conditions under a 12 h light:dark cycle, lights on at 0700 h. All testing was carried out in the light phase. Food and water were freely provided. All experiments were conducted in accordance with the Animals Scientific Procedures Act, U.K. 1986 and were approved by the University of Bradford ethical review panel.
40 mg of test compound was dissolved in 5 ml of 40% hydroxypropyl β-cyclodextrin (HPBC) solution. The solution was sonicated until completely dissolved. 2 ml of sterile water was added and the pH measured and adjusted with NaOH solution (0.1N) to obtain pH ˜4. Finally, sterile water was added to a final volume of 10 ml. This stock solution was then diluted in 20% HPBC to obtain the final concentrations. 100 mg of PQ10 was dissolved in a 40% HPBC solution and 8 mg of tartaric acid. The solution was sonicated until completely dissolved. 5 ml of sterile water was added and the pH measured and adjusted with NaOH solution (0.1N) to obtain pH ˜4. Finally sterile water was added to a final volume of 10 ml.
Test compound was administered at doses of 0.3 and 1.0 mg/kg via the oral route 30 min prior to testing.
PQ10 was administered at a dose of 1.0 mg/kg via the oral route 30 min prior to testing.
Certain pre-clinical tests allow the observation of relatively subtle cognitive deficits in the rat that resemble cognitive symptoms in subjects with schizophrenia. The cognitive deficits observed are seen in behaviours such as episodic memory, which can be measured by recognition tasks such as the novel object recognition (NOR) paradigm. A recognition memory task allows the comparison between presented stimuli and previously stored information. Ennaceur, A Delacour, J (1988) A new one-trial test for neurobiological studies of memory in rats Behav Brain Res 31: 47-59 described the NOR test in rats which was based on the differential exploration of familiar and new objects. The NOR test is a non-rewarded, ethologically relevant paradigm based on the spontaneous exploratory behaviour of rats that measures episodic memory. Each session consists of two trials. In the first trial, the rats are exposed to two identical objects in an open field. During the second trial, rats are exposed to two dissimilar objects, one familiar object from the first trial and one new object. Object recognition in rats can be measured as the difference in time spent exploring the familiar and the new object. […] The duration of each trial is also important as a preference for the novel object only lasts during the first 1 or 2 minutes, after which time preference diminishes as both objects become familiar and are explored equally.
Rats were randomly assigned to the 8 treatment groups
Rats were allowed to habituate to the empty test box and the behavioural test room environment for 1 h on day 1. Prior to behavioural testing on day 2 rats were given a further 3 min habituation.
Following the 3 min habituation period, the rats were given two 3 min trials (T1 and T2) which were separated by a 1 min inter-trial interval in the home cage during which the objects were changed.
In this trial, the animals were allowed to explore two identical objects (A1 and A2) for 3 min.
In this trial, the animals explored a familiar object (A) from T1 and a novel object (B) for 3 min. The familiar object presented during T2 was a duplicate of the object presented in T1 in order to avoid any olfactory trails.
The object exploration was defined by animals licking, sniffing or touching the object with the forepaws whilst sniffing, but not leaning against, turning around, standing or sitting on the object. […]

[2] = tested on: female hooded-Lister rats; assay: as above; type: in vivo, rat; conditions: PCP + 1 mg/kg p.o., Day 1, 3 min retention trial, mean
[3] = molecular target: T1, Rat recombinant PDE10A (rPDE10A2) (Rattus norvegicus, UniProt Q9QYJ6); assay: In vitro assay PDE10A (SPA, 3H-cAMP); type: biochemical
T1 construct: inferred from the Ni metal chelate purification; made in house; host or cells: Sf9 insect cells (baculovirus)
T1 sequence (Q9QYJ6 1-794): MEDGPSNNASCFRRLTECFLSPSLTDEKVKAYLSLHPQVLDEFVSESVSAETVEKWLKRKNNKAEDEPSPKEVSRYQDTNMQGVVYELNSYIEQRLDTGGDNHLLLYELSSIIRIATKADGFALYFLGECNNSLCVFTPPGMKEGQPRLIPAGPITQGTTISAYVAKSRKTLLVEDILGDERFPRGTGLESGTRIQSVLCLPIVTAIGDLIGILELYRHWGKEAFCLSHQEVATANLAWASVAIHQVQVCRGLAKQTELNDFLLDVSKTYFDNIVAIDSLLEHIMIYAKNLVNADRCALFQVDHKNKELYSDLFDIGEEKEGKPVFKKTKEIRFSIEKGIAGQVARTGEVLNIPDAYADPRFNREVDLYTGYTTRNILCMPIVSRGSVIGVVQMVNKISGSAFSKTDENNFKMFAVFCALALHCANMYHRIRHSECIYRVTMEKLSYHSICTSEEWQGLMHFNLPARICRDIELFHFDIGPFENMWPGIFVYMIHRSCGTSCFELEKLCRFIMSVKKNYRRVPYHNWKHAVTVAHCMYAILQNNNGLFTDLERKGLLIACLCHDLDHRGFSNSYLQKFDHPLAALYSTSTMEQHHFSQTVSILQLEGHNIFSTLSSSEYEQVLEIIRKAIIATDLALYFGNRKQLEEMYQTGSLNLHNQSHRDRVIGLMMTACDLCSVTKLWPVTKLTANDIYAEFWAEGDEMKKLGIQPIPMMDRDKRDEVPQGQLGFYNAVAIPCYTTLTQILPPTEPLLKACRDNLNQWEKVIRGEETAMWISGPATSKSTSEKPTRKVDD
Outline: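 Scintillation proximity read-out (cpm) of 3H-cAMP hydrolysis after 60 min at room temperature, with enzyme-free blanks and 1% DMSO controls. Enzyme was Sf9-expressed, Ni-sepharose-purified rat rPDE10A2; substrate 60 nM cAMP with tracer, buffer Tris pH 7.8 containing MgCl2 and EGTA.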

[4] = tested on: apomorphine-induced stereotypy in rats; assay: Apomorphine-induced stereotypy in rats (APO); type: in vivo; conditions: Rattus norvegicus
Procedure: Apomorphine (1.0 mg/kg, i.v.)-induced stereotypy (compulsive sniffing, licking, chewing) was scored every 5 min over the first hour after injection of apomorphine, following a 1 hour interval pre-treatment with the test compound. The score system was: (3) pronounced, (2) moderate, (1) slight, and (0) absent.

PDE4D3 = PDE4D3 (Homo sapiens, UniProt Q08499); assay: In vitro PDE selectivity assay (SPA), PDE4D3; type: biochemical; conditions: hPDE4D3; read-out: PDE 4D3 (expressed as pIC50) (converted)
Chain of PDE4D3 (Q08499 1-673 isoform Q08499-2): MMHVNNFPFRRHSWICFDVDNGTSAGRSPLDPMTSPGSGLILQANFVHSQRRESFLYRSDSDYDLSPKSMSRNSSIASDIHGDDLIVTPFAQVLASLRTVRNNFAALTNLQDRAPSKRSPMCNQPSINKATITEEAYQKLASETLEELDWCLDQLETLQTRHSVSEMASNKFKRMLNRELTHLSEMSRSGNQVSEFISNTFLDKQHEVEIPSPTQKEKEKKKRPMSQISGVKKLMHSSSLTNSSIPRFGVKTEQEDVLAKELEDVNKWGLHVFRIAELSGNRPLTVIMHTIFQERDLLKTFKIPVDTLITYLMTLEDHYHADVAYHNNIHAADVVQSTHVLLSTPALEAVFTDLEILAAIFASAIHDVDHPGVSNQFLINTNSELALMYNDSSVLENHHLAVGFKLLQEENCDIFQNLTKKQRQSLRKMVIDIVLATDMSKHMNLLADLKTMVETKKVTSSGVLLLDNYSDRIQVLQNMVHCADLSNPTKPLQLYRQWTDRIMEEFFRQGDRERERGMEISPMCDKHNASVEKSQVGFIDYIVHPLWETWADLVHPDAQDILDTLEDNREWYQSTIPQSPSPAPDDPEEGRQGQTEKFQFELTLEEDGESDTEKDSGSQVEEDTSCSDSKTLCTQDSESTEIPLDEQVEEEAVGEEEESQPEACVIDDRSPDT
Outline: (§1)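 Inhibition of each PDE isoform was measured by scintillation proximity assay with ³H-cyclic nucleotide substrate, using incubation buffer, substrate concentration, incubation time and stop solution adapted per isoform. Compounds were tested in dose-response against 1% DMSO controls and enzyme-free blanks. IC50 came from a least-squares fit of blank-subtracted % of control versus concentration.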

[5] = molecular target: other members of the PDE family (Homo sapiens, UniProt O60658); assay: In vitro PDE selectivity assay (SPA), other members of the PDE family (protocols in Table A); type: biochemical; conditions: hPDE8A1; read-out: PDE 8A1 (expressed as pIC50) (converted)
Outline: as §1

[6] = molecular target: other members of the PDE family (Homo sapiens, UniProt O76083); assay: as above; type: biochemical; conditions: hPDE9A; read-out: PDE 9A (expressed as pIC50) (converted)
Chain of other members of the PDE family (Homo sapiens, UniProt O76083) (O76083 whole entry): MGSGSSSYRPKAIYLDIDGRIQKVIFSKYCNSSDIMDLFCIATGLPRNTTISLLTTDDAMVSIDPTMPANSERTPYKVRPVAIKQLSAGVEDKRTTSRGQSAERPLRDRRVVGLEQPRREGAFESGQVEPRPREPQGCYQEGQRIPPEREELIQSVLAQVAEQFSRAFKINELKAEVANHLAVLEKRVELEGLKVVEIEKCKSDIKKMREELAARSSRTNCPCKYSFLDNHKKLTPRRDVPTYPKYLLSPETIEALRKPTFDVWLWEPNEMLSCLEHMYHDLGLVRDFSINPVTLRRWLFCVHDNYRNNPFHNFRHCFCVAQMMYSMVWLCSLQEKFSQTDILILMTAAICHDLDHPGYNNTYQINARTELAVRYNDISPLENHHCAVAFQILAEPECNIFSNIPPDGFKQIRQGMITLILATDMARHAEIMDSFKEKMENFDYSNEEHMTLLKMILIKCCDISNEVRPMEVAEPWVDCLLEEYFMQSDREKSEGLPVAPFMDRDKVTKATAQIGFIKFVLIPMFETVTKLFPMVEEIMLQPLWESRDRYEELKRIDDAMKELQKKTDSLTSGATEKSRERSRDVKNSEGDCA
Outline: as §1

[7] = molecular target: other members of the PDE family (Homo sapiens, UniProt Q9HCR9); assay: as above; type: biochemical; conditions: hPDE11A4; read-out: PDE 11A4 (expressed as pIC50) (converted)
Chain of other members of the PDE family (Homo sapiens, UniProt Q9HCR9) (Q9HCR9 whole entry): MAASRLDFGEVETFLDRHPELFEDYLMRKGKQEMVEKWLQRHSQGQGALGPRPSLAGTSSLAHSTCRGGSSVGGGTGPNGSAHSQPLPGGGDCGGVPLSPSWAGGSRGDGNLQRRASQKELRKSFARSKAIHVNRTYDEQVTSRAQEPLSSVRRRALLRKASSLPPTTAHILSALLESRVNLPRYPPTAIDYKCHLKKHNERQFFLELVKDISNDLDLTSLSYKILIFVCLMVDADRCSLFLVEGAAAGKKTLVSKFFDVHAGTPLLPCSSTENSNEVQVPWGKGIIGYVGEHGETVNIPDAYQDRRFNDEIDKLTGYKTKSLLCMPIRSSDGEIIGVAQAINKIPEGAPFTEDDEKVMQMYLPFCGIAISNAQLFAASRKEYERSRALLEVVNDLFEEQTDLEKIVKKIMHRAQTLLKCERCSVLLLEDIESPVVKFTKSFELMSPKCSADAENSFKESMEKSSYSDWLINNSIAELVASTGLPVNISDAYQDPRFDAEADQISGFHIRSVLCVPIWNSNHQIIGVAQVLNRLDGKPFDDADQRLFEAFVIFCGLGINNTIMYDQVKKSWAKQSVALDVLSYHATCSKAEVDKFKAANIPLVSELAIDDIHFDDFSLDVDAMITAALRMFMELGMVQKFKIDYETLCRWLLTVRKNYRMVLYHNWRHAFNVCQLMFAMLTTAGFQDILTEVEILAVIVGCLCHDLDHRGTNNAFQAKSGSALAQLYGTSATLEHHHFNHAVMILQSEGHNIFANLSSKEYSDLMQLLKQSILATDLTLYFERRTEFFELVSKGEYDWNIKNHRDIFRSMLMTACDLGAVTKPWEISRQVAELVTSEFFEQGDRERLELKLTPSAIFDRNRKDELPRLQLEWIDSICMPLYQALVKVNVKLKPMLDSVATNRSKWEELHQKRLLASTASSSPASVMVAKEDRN
Outline: as §1

[8] = molecular target: other members of the PDE family (Homo sapiens, UniProt P16499+P35913); assay: as above; type: biochemical; conditions: hPDE6AB; read-out: PDE 6AB (expressed as pIC50) (converted)
Outline: as §1

[9] = molecular target: other members of the PDE family (Homo sapiens, UniProt Q13946); assay: as above; type: biochemical; conditions: hPDE7A1; read-out: PDE 7A (expressed as pIC50) (converted)
Chain of other members of the PDE family (Homo sapiens, UniProt Q13946) (Q13946 whole entry): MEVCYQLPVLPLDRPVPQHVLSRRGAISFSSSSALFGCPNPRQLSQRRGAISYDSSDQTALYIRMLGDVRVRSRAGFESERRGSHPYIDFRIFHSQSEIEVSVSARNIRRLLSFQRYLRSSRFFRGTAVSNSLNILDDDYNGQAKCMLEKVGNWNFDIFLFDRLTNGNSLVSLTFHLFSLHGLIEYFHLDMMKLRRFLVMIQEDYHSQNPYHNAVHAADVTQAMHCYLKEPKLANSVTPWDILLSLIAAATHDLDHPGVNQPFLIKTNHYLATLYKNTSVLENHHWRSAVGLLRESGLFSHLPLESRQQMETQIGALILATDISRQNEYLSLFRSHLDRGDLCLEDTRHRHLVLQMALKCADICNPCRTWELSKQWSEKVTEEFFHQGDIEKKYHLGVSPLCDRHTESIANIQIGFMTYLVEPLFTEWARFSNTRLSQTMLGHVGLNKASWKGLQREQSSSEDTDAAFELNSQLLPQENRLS
Outline: as §1

[10] = molecular target: other members of the PDE family (Homo sapiens, UniProt O00408); assay: as above; type: biochemical; conditions: hPDE2A; read-out: PDE 2A (expressed as pIC50) (converted)
Chain of other members of the PDE family (Homo sapiens, UniProt O00408) (O00408 whole entry): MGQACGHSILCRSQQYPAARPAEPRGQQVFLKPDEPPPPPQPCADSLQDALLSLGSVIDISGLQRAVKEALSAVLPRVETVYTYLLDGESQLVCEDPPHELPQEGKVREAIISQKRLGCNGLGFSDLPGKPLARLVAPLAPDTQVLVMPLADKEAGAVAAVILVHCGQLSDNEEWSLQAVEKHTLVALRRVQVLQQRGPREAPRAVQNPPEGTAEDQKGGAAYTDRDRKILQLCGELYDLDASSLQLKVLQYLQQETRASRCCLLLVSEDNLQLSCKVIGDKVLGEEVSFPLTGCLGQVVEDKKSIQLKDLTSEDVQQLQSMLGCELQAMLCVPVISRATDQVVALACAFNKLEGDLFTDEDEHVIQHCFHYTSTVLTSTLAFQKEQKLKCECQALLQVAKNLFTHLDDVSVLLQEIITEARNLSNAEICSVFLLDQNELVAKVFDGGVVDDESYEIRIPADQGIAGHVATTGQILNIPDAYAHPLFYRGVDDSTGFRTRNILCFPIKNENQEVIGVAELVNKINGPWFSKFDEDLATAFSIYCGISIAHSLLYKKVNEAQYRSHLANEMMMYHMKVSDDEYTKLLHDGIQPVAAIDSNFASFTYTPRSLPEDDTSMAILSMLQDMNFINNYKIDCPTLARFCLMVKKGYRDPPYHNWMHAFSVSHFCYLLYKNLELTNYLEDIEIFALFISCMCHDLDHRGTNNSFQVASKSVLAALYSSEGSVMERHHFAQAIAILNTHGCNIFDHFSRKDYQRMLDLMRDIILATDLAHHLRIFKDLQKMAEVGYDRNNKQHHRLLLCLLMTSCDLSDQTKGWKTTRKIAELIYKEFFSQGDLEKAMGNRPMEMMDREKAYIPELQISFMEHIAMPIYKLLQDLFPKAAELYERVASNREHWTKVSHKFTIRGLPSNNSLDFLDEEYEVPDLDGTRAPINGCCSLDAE
Outline: as §1

[11] = molecular target: other members of the PDE family (Homo sapiens, UniProt Q14432); assay: as above; type: biochemical; conditions: hPDE3A; read-out: PDE 3A (expressed as pIC50) (converted)
Chain of other members of the PDE family (Homo sapiens, UniProt Q14432) (Q14432 whole entry): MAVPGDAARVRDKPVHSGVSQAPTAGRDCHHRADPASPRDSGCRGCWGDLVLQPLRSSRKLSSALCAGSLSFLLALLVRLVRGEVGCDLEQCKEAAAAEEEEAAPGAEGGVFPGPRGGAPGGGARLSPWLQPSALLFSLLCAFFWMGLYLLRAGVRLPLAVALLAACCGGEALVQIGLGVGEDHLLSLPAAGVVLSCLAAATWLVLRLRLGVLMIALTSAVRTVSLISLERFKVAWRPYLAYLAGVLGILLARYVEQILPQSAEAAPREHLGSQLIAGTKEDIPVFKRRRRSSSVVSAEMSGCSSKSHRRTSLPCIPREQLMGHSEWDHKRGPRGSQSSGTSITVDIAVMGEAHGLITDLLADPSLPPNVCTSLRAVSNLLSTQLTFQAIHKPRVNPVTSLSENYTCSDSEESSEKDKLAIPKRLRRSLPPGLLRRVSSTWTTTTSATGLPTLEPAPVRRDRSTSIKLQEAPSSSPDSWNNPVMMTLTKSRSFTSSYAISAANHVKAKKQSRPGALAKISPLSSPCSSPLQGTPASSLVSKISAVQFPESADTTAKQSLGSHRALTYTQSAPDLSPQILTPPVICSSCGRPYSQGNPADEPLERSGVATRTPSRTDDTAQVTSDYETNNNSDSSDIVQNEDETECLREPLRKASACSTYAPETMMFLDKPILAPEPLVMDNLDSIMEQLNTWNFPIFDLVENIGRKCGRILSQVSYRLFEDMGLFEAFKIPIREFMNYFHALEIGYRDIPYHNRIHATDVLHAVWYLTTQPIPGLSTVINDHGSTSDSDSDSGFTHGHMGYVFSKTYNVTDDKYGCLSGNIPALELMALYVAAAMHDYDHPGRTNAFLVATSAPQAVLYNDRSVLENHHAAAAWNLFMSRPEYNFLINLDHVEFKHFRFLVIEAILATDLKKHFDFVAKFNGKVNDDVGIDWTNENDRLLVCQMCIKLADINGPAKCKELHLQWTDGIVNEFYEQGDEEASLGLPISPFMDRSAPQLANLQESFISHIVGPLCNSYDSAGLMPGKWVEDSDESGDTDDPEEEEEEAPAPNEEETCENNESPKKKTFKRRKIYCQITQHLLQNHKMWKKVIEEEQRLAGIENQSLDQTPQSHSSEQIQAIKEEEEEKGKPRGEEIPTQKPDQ
Outline: as §1

PDE5A3 = PDE5A3 (Homo sapiens, UniProt O76074); assay: In vitro PDE selectivity assay (SPA), PDE5A3; type: biochemical; conditions: hPDE5A3; read-out: PDE 5A3 (expressed as pIC50) (converted)
Outline: as §1

PDE1B1 = PDE1B1 (Homo sapiens, UniProt Q01064); assay: In vitro PDE selectivity assay (SPA), PDE1B1; type: biochemical; conditions: hPDE1B1; read-out: PDE 1B1 (expressed as pIC50) (converted)
PDE10 = molecular target: T2, PDE10 (Rattus norvegicus, UniProt Q9QYJ6); assay: PDE10 occupancy ([3H]-MP-10, striatum); type: in vivo; conditions: rat, sc; single dose 10 mg/kg, subcutaneous; read-out: SD sc % occupancy at 10 mg/kg
T2 construct: from tissue; host or cells: rat brain sections, striatum (in vivo dosing, ex vivo autoradiography)
T2 sequence (Q9QYJ6 1-794): T1 sequence (Q9QYJ6 1-794)
Outline: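 Male Wistar rats (200 g) dosed s.c. or p.o.; occupancy measured 1 h post-dose. [^3H]-MP-10 (10 μCi/animal) given i.v. 30 min before sacrifice.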

[12] = pIC50 corresponds to the −log IC50 expressed in mol/L, read-out: PDE10A2 pIC50 (converted)
[13] = Table 4 in vitro selectivity, read-out: PDE 10A2 (expressed as pIC50) (converted)
[14] = dose at which 50% of the tested animals show the effect, ≧: active in 30% of the animals at the indicated dose, ≦: active in 60%

Compound | IC50 [3, 12] | IC50 (PDE4D3) | IC50 [6] | IC50 [7] | IC50 [9] | IC50 [10] | IC50 [11] | IC50 [3, 13] | IC50 (PDE5A3) | receptor occupancy at 10 mg/kg (PDE10) | ED50 [4, 14] | also measured
COc1cc2ncnc(N3CC[C@@H](Oc4cnc5ccccc5n4)C3)c2cc1OC [PQ10, reference compound] | – | – | – | – | – | – | – | – | – | – | – | DI (discrimination index) ([1]; PCP + 1 mg/kg p.o., mean): 0.4193; LMA (no. of lines crossed) ([1]; PCP + 1 mg/kg p.o., mean): 65.5 no. of lines crossed; effects of acute treatment in the NOR task ([1]; acute treatment, oral route 30 min prior to testing, compound 1 0.3-1.0 mg/kg, PQ10 1.0 mg/kg, sub-chronic PCP female rats): selective for the retention phase; T2(A) exploration time of familiar object, retention trial [2]: 7.9 s; T2(B) exploration time of novel object, retention trial [2]: 19.9 s
COCCn1cc(-c2c(C)nc3c(-c4ccncc4)cc(Cl)nn23)cn1 [compound 147, 6-chloro-3-[1-(2-methoxyethyl)-1H-pyrazol-4-yl]-2-methyl-8-(4-pyridinyl)-imidazo[1,2-b]pyridazine] | 67.6 nM | 3800 nM | > 10000 nM | 3800 nM | 3550 nM | > 10000 nM | > 10000 nM | 67.6 nM | 1170 nM | 22% | 5 mg/kg | –
CC(C)Cn1cc(-c2c(C3CC3)nc3c(-c4ccncc4)ccnn23)cn1 [compound 148, 2-cyclopropyl-3-[1-(2-methylpropyl)-1H-pyrazol-4-yl]-8-(4-pyridinyl)-imidazo[1,2-b]pyridazine] | 25.1 nM | 2570 nM | > 10000 nM | 1910 nM | 2880 nM | 4370 nM | 3160 nM | 25.1 nM | 1230 nM | 66% | 5 mg/kg | –

Further lines, with some results ahead:

IC50 [3, 12] | IC50 (PDE4D3) | IC50 [6] | IC50 [7] | IC50 [9] | IC50 [10] | IC50 [11] | IC50 [3, 13] | IC50 (PDE5A3) | receptor occupancy at 10 mg/kg (PDE10) | Compound | ED50 [4, 14] | also measured
60.3 nM | – | – | – | – | – | – | – | – | – | Cc1nc2c(-c3ccncc3)ccnn2c1-c1ccc(N2CCOCC2)nc1 [compound 31, 2-methyl-3-[6-(4-morpholinyl)-3-pyridinyl]-8-(4-pyridinyl)-imidazo[1,2-b]pyridazine] | – | melting point: > 300 °C (dec.); ED50 ([4]; n.d.: found not active at threshold dose 2.5 mg/kg or 10 mg/kg (a), not further tested): > 2.5 mg/kg
56.2 nM | > 10000 nM | > 10000 nM | > 10000 nM | > 10000 nM | > 10000 nM | > 10000 nM | 56.2 nM | > 10000 nM | – | COCCn1cc(-c2c(C)nc3c(N4CCOCC4)ccnn23)cn1 [compound 36, 3-[1-(2-methoxyethyl)-1H-pyrazol-4-yl]-2-methyl-8-(4-morpholinyl)-imidazo[1,2-b]pyridazine] | 5 mg/kg | IC50 [5]: > 10000 nM; IC50 [8]: > 10000 nM
339 nM | > 10000 nM | > 10000 nM | > 10000 nM | > 10000 nM | 7940 nM | > 10000 nM | 339 nM | 2690 nM | – | c1cc(-c2ccnn3c(-c4ccc(N5CCOCC5)nc4)cnc23)ccn1 [compound 61, 3-[6-(4-morpholinyl)-3-pyridinyl]-8-(4-pyridinyl)-imidazo[1,2-b]pyridazine] | 1.2 mg/kg | IC50 (PDE1B1): > 10000 nM
14.5 nM | 2820 nM | > 10000 nM | 1820 nM | 5010 nM | 5500 nM | 5130 nM | 14.5 nM | 1150 nM | 78% | COCCn1cc(-c2c(C3CC3)nc3c(-c4ccncc4)ccnn23)cn1 [compound 142, 2-cyclopropyl-3-[1-(2-methoxyethyl)-1H-pyrazol-4-yl]-8-(4-pyridinyl)-imidazo[1,2-b]pyridazine] | 5 mg/kg | –
